Key:
[1] = biological target: T1, human neutrophil elastase (Homo sapiens, UniProt P08246); assay: Enzymatic cleavage of elastase-responsive peptide and PEG-AAPV conjugate; assay type: biochemical; conditions: 7 mmol/L AAPV peptide, 20 nmol/L human neutrophil elastase, PBS pH 7.4, 37 °C, analytical HPLC
T1 construct: purchased Merck/Calbiochem
T1 sequence (P08246 30-267): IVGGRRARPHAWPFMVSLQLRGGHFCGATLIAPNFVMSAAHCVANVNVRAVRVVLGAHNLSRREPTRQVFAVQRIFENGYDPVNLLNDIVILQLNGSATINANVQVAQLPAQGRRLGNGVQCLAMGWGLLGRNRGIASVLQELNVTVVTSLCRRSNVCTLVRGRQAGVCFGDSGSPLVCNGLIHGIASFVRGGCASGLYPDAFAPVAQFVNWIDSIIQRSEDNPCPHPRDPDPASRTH
Method: starPEG-peptide conjugate with full starPEG arm saturation by the leukocyte elastas e responsive AAPV peptide was added to the reaction solution in 4-fold excess, to finally result […]
The reaction mixture was directly used for hydrogel format ion.
S1.3. Supplement –Basic analysis
Enzymatic clea vage of el astase- responsive peptide and PEG-AAPV conjug ate To analyze leuko cyte elastase mediated hydrolysis of the responsive peptide and the corresponding conjugate, 7 mmol L -1 AAPV peptide or 0.7 mmol L -1 starPEG-AAPV conjugate w er e incub ated with 20 nmol L -1 human neutrophil el astase in PBS, pH 7.4 at 37°C.
The enzymatic reaction was evaluated after indicated timepoints by analytical HPLC, followed by integral anal ysis of the peak signals for educt and cleavage products.
Inhibition of leukocyte el astaseby heparin
To evaluate the influence of the hydrogel component heparin on the activity of leukocyte elastase, samples with heparin sodium salt concentrations of 0.001- 1 000µg mL -1 were prepared in 50mmol L -1 Tris-HCl pH 7.4 supplemented with 100mmol L -1 NaCl and 0.1% BSA and pre-incubated with 10nmol L -1 leukocyte elastase for 5 min. […]

[2] = tested on: complement system; assay: Complement activation in whole blood with zymosan (C5a ELISA); assay type: cell-based, human; conditions: zymosan 10 µg/mL, 30 min, 37 °C, 4W9A alone and conjugated to cleavage fragment (Figure S4, 10 µmol/L, n = 3)
Method: Figure 3 Cleavage of inflammation‐responsive hydrogels in an in vitro inflammation model and assessment of the anti‐inflammatory effects of the released drugs. A) For hydrogel cleavage, isolated polymorphonuclear granulocytes (PMN) are activated with complement‐opsonized zymosan (OPZ) in cell culture media and incubated with the hydrogel over 2 h at 37 °C. The cell‐free supernatant containing the released bioactive is used to test the anti‐inflammatory effect in the corresponding system. B) 4W9A: Measurement of complement activation in whole blood activated with zymosan. C) PMX53: Activation of isolated PMN by zymosan activated serum, measured as CD11b expression (*P < 0.05, **P < 0.01 in t‐test).
The amount of Atto488 released from the hydrogel as a model drug was determined by fluorescence measurement at λ ex. = 485 nm/λ em. = 535 nm against an Atto488 standard. […] Cell activation was determined by flow cytometry using CD11b‐VioBlue staining (Biolegend) for isolated granulocytes and additionally CD14‐APC and CD41a‐FITC (both BD Biosciences, New Jersey, USA) for whole blood samples. Leukocyte elastase and C5a concentrations were determined using the commercial ELISA kits Hycult human elastase ELISA (Hycult Biotech, Uden, Netherlands) and C5a micro ELISA (DRG, Marburg, Germany) according to the manufactures instructions.

[3] = biological target: cyclophilin A (CypA) (Homo sapiens, UniProt P62937); assay: PPIase inhibition; assay type: biochemical; conditions: PPIase assay, Table S2
Method: From the activity against the inhibitor concentrations, the IC50 and the K i value were determined with nonlinear curve fitting according to the models of Morrison^[ [41] ^] and Murphy.^[ [42] ^]

[4] = biological target: calcineurin (Homo sapiens, UniProt P62937+P63098+Q08209)
[5] = biological target: C5a receptor (C5aR1 or CD88); conditions: C5a receptor inhibitor; read-out: IC50 of PMX53; cited from earlier work
Excerpt: PMX53 is derived from the C‐terminus of the C5a fragment. Therefore, N‐terminal sequence extension by a glycine spacer and a cysteine group appeared possible without loss of activity.^[ [19], [30] ^] (Table S1, Supporting Information). The obtained peptide was linked to the elastase‐responsive hydrogel platform as an anti‐inflammatory feedback control system. The low IC50 concentration (IC50 = 20 nmol L^−1[ [19] ^]) allowed for a low functionalization degree at the hydrogel of only 2% of the starPEG‐AAPV‐arms.

[6] = tested on: leukocyte; design: method as in PMID 10354404; conditions: specific for C5aR1; cited from earlier work
[7] = tested on: human leukocyte elastase; assay: Inhibition of leukocyte elastase by heparin; assay type: biochemical; conditions: U-shaped, heparin 0.01–5 µg/mL (≈0.002–1 U/mL); 10 nmol/L elastase, 250 µmol/L MeOSuc-Ala-Ala-Pro-Val-pNA, Tris-HCl pH 7.4, 100 mmol/L NaCl, 0.1% BSA, 5 min pre-incubation, 37 °C, 30 min, 405 nm; normalized to control without heparin; mean ± SD of n=2
Method: Figure S2: Inhibition of leukocyte elastase by heparin. A concentration of 10 nmol L-1 human leukocyte elastase was used to cleave 250 µmol L -1 chromogenic substrate in the presence of different heparin concentrations. The substrate cleavage was monitored photometrically at a wavelength of 405nm by the release of p- nitroaniline from the chromogenic substrate methoxysuccinyl-Ala-Al a-Pro-V al-pNA over 30 min. Values were normalized to a cont rol sample without heparin; mean ± SD of n=2.
(1 picture or pasted object on this page, not shown here) […]
The enzymatic reaction was evaluated after indicated timepoints by analytical HPLC, followed by integral anal ysis of the peak signals for educt and cleavage products. […]
To evaluate the influence of the hydrogel component heparin on the activity of leukocyte elastase, samples with heparin sodium salt concentrations of 0.001- 1 000µg mL -1 were prepared in 50mmol L -1 Tris-HCl pH 7.4 supplemented with 100mmol L -1 NaCl and 0.1% BSA and pre-incubated with 10nmol L -1 leukocyte elastase for 5 min. Subsequently, the cleavage of 250 µmol L-1 chromogenic substrate MeOSuc-Ala-Ala-Pro-V al-pNA by leukocyte elastase in the presence of the different heparin concentrations was measured as reaction kinetic at 37°C for 30min using the Spark TM 10M multimode microplate reader (Tecan) at 405 nm and c ompared to a cont rol without heparin.

[8] = tested on: elastase; conditions: cited from earlier work
Excerpt: (§1) The heparin component of the hydrogel matrix provides favorable additional anti‐inflammatory properties and interacts with the cleaving enzyme in different ways: Elastase has an anion binding site, which mediates binding to the DNA in neutrophil extracellular traps (NETs), to heparin and heparan sulfates, and also leads to accumulation at the hydrogel.^[ [21] ^] […] Additionally, direct inhibition of elastase acti ...

[9] = tested on: α1‐antitrypsin; conditions: cited from earlier work
Excerpt: as §1

[10] = tested on: extracellular CypA; conditions: cited from earlier work

calcineurin, sequence (P63098 whole entry, other chains not shown): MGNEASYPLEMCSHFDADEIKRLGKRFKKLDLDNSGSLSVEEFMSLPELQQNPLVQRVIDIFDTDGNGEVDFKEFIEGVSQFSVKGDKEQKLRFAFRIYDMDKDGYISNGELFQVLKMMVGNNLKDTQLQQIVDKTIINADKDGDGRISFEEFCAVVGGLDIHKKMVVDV
calcineurin, sequence (P62937 whole entry, other chains not shown): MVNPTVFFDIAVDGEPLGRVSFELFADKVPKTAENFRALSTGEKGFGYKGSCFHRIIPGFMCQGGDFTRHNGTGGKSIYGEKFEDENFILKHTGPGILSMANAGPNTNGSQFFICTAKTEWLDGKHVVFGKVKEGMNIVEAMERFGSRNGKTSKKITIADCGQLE
cyclophilin A (CypA), sequence (P62937 whole entry): as the sequence (P62937 whole entry, other chains not shown) above

H2N-GWGAAPV-↑-RGGCG-CONH2
cleavage rate of the free peptide by elastase [1]: 0.36 s⁻¹

Mal-l[CVWQDWGAHRC]-T-CONH2 (disulfide) [4W9A]
inhibitor concentration that should be exceeded for complement inhibition [2]: > 2 µmol/L

CC[C@@H]1NC(=O)[C@H]([C@H](O)[C@H](C)Cc2nc3cc(C(=O)N[C@H](CCC(=O)O)C(=O)N[C@H](CCC(=O)O)C(=O)N[C@H](CCC(=O)O)C(=O)N[C@H](CCC(=O)O)C(=O)N[C@H](CCC(=O)O)C(=O)N[C@H](CCC(=O)O)C(=O)NCC(=O)N[C@@H](CCCCN)C(=O)NCC(=O)N[C@@H](C)C(=O)N[C@@H](C)C(=O)N4CCC[C@H]4C(=O)N[C@H](C(=O)NCC(=O)NCC(=O)N[C@@H](CS)C(N)=O)C(C)C)ccc3[nH]2)N(C)C(=O)[C@H](C(C)C)N(C)C(=O)[C@H](CC(C)C)N(C)C(=O)[C@H](CC(C)C)N(C)C(=O)[C@@H](C)NC(=O)[C@H](C)NC(=O)[C@H](CC(C)C)N(C)C(=O)[C@H](C(C)C)NC(=O)[C@H](CC(C)C)N(C)C(=O)CN(C)C1=O [MM623]
CypA inhibition compared with MM284 [3]: comparable to MM284 | calcineurin: concentration up to which no inhibition was found [4]: ≥ 20 µmol/L

PMX53
IC50 [5]: 20 nM | effect on leukocyte stimulation by cytokines, leukotriene B4, endotoxins, or formylated peptides [6]: has no effect on leukocyte stimulation by cytokines, leukotriene B4, endotoxins, or formylated peptides

heparin
suppression of elastase activity to (residual activity) [7]: about 50% | elastase activity inhibition by heparin binding [8]: direct inhibition of elastase activity by heparin binding has been reported | α1-antitrypsin activity [9]: decreases the activity of α1‐antitrypsin

CC[C@@H]1NC(=O)[C@H]([C@H](O)[C@H](C)Cc2nc3cc(C(=O)O)ccc3[nH]2)N(C)C(=O)[C@H](C(C)C)N(C)C(=O)[C@H](CC(C)C)N(C)C(=O)[C@H](CC(C)C)N(C)C(=O)[C@@H](C)NC(=O)[C@H](C)NC(=O)[C@H](CC(C)C)N(C)C(=O)[C@H](C(C)C)NC(=O)[C@H](CC(C)C)N(C)C(=O)CN(C)C1=O [MM284]
calcineurin: concentration up to which no inhibition was found [4]: ≥ 15 µmol/L | extracellular CypA inhibition / immunosuppression [10]: inhibits extracellular CypA, providing anti‐inflammatory without immunosuppressive activity

From publication PMC9982591, “Inflammation‐Controlled Anti‐Inflammatory Hydrogels” (Advanced Science, 2022)
